Laboratory results taken from US20130025073A1, “DETERGENT COMPOSITIONS” (priority 2011, published 2013).

Molecular target: T1, Protease (Purafect Prime®) (Bacillus amyloliquefaciens, UniProt P00782, Y324L)
T1 construct: purchased Genencor International, Palo Alto Purafect Prime®
Experiment: Stability of Protease in amine neutralized-anionic surfactant-containing detergent (Example 10) after incubation
Assay type: physicochemical
Conditions: Detergent example 10, pH 8.2, 3 weeks and 6 weeks 30° C., versus a nil PBA reference
Method: Test of stability of Protease in an Amine Neutralized-Anionic Surfactant-Containing Detergent after Incubation in Detergent, Example 10, at pH 8.2
A detergent composition, example 10, nil enzyme, nil calcium chloride dihydrate and nil phenylboronic acid (PBA), balanced to pH 8.2 using monoethanolamine, was prepared.
The protease, that sold under the trade name of Purafect Prime®, by Genencor International, Palo Alto (38.7 mg active Protease protein in 100 g detergent), was added to the above detergent. Each detergent sample was determined for the initial residual enzyme activity before incubation (Initial reference samples).
The residual enzyme activity for each sample was determined after incubation at 30° C. for 3 weeks and 6 weeks and compared to their reference sample. The residual activity was determined using the standard enzyme activity assays for the relevant enzyme.
Detergent formulations A-D, 5 g pH 8.2, were placed in duplicate into a 7 ml glass vial with an air tight lid. The residual enzyme activity was determined for the initial samples, in duplicate, before incubation.
The samples were placed into an incubator for 3 weeks and 6 weeks at 30° C. Immediately after incubation, the samples were analysed for both residual Protease. In this test the residual activity of 100% equals no loss of Protease activity compared to initial residual enzyme activity before incubation.

T1 sequence (P00782 108-382 Y324L): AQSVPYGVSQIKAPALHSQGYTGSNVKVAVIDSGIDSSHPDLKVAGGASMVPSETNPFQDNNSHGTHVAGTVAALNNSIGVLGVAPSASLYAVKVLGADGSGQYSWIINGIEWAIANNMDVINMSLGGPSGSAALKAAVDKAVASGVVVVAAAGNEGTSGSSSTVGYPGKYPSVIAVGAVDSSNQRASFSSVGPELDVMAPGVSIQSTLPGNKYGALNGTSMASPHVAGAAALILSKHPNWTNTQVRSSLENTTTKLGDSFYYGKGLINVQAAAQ

OB(O)c1ccccc1 [PBA, phenylboronic acid]
Effect of PBA addition on stability of the Protease: significantly improves stability of the Protease
